This note sets out measurements from US5151352A, “Process for producing diterpene compounds” (Kyowa Hakko Kogyo Co., Ltd., priority 1990, dated 1992).

The test system of data set [1] is Klebsiella pneumoniae ATCC 10031. Nature of the data set: Antibacterial activity, agar dilution method (pH 7.0). The class given is cell-based. As to conditions: ATCC10031, read-out: minimum growth inhibition concentration (MIC). The source says: (§1) The antibacterial activities of UCT4-B on four bacteria (i.e., Staphylococcus aureus, Enterococcus faecium, Bacillus subtilis, Klebsiella pneumoniae) were examined by the agar dilution method (pH 7.0)[refer to "Biseibutsu Jikken Manyuaru (Manual of The Microbial Experiments)" 80, Kodansha (1986)].
(§2) The results are shown in terms of the minimum growth inhibition concentration (MIC) in Table 2.
A general note: Agar dilution tests growth on a series of plates holding different concentrations.

For data set [2], the system named is Bacillus subtilis ATCC 10707. The data set is described as above. Particulars: ATCC10707, read-out: minimum growth inhibition concentration (MIC). The class given is cell-based.
Text: as §1, §2

The subject of data set [3] is Enterococcus faecium ATCC 10541. Described as above. The class given is cell-based. Particulars: ATCC10541, read-out: minimum growth inhibition concentration (MIC).
Text: as §1, §2

The subject of data set [4] is Staphylococcus aureus ATCC 6538P. The data set is described as above. Type of data set: cell-based. Particulars: ATCC6538P, read-out: minimum growth inhibition concentration (MIC).
Text: as §1, §2

Data set [5] in a line: Acute toxicity, single intravenous administration, 14 days survival. Particulars: mouse, in vivo, ddy mice, single i.v., Behrens-Karber method. Here is the method:
UCT4-B was intravenously administered once to ddy mice weighing about 20 g (each group having 5 animals) and then the survival state of the animals was monitored for 14 days following the administration. Then LD50 of the compound was calculated based on the mortality of mice in each group in accordance with the Behrens-Karber method.

Data set [6] has as its system lymphocytic leukemia p338 tumor cells. Nature of the data set: Effect on lymphocytic leukemia (life-prolonging effect). Type of data set: in vivo, CDF1 male mice. Particulars: i.p., 24 hours after i.p. transplantation. On the procedure:
1×10^6 lymphocytic leukemia p338 tumor cells were intraperitoneally transplanted into CDF1 male mice weighing 22 g (each group having 5 animals). 24 hours after the trans- plantation, 0.2 ml of a solution of UCT4-B in physiological saline or 0.2 ml of physiological saline (the control group) was intraperitoneally administered to the animals.
The results of the test are expressed in terms of T/C (%) calculated by dividing the average survival days of each test group (T) with that of the control group (C).

≈ marks a conversion by molar mass, not a printed value. Where only a bound is given, the exact number is not on record here.

For orientation: LD50 means the dose at which mortality reaches 50%. Low values mean a more toxic substance, high ones a less toxic substance. On to `CC1C(O)C(=O)C2(C)C(CO)=CCCC2C1(C)CC(O)C1(C(=O)C=O)CO1` (stereo not shown) [UCT4-B], for which the MIC came out at 2.1 µg/mL (≈ 5.52 µM) in data set [1], 8.3 µg/mL (≈ 21.8 µM) in data set [2], 4.1 µg/mL (≈ 10.8 µM) in data set [3] and 4.1 µg/mL (≈ 10.8 µM) in data set [4]. The molecule also registered an LD50 at 336 h in data set [5] of no less than 50 mg/kg. Also, the “Life-prolonging effect (T/C %)” value in data set [6] (3 mg/kg) stood at 124%; in data set [6] (6 mg/kg), 131%; in data set [6] (12 mg/kg), 127%; in data set [6] (25 mg/kg), 137%; in data set [6] (50 mg/kg), 141%. In addition, the Solubility result was “soluble” in the data set “Solubility” (acetonitrile); “highly soluble” in the data set “Solubility” (chloroform); “highly soluble” in the data set “Solubility” (ethyl acetate); “insoluble” in “Solubility” (hexane); “highly soluble” in “Solubility” (methanol); “soluble” in the data set “Solubility” (water).
